The source made the active and inactive calls. No cut-off for these calls is given here.
Assays:
[1] = molecular target: Muscarinic acetylcholine receptor M1 (Homo sapiens) (UniProt P11229); conditions: Compound concentration 10.0 uM
Description: M1 CEREP ligand profiling

[2] = molecular target: T1, D(4) dopamine receptor (Homo sapiens, UniProt P21917); experiment: Radioligand assay (DRD4.4)
T1 sequence (P21917 whole entry): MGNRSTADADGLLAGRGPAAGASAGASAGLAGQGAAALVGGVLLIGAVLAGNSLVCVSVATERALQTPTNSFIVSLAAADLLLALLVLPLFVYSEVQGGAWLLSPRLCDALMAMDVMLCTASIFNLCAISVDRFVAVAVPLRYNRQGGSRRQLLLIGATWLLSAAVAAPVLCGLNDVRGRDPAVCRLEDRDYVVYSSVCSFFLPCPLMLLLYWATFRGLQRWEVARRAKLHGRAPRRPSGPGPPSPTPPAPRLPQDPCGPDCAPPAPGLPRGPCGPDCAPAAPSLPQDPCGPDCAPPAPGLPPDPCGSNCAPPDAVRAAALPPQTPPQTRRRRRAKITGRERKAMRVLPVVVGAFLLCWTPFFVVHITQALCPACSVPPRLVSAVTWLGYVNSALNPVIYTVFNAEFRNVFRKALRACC

[3] = molecular target: Myosin-IIIb (Homo sapiens) (UniProt Q8WXR4); conditions: Compound concentration 1000.0 nM
[4] = molecular target: Phosphatidylinositol 4-kinase beta (Homo sapiens) (UniProt Q9UBF8); conditions: Compound concentration 1000.0 nM
[5] = molecular target: Adenosine receptor A1 (Homo sapiens) (UniProt P30542); conditions: Compound concentration 10.0 uM
Description: A1 CEREP ligand profiling

[6] = molecular target: Tyrosine-protein kinase BTK (Homo sapiens) (UniProt Q06187); conditions: Compound concentration 1000.0 nM
[7] = molecular target: Calcitonin-gene-related peptide receptor, CALCRL/RAMP1 (Homo sapiens) (UniProt O60894+Q16602); conditions: Compound concentration 10.0 uM
Description: CGRP CEREP ligand profiling

[8] = molecular target: Serine/threonine-protein kinase SIK2 (Homo sapiens) (UniProt Q9H0K1); conditions: Compound concentration 1000.0 nM
[9] = molecular target: Mitogen-activated protein kinase 4 (Homo sapiens) (UniProt P31152); conditions: Compound concentration 1000.0 nM
[10] = molecular target: Serine/threonine-protein kinase 24 (Homo sapiens) (UniProt Q9Y6E0); conditions: Compound concentration 1000.0 nM
[11] = molecular target: Muscarinic acetylcholine receptor M4 (Homo sapiens) (UniProt P08173); conditions: Compound concentration 10.0 uM
Description: M4 CEREP ligand profiling

[12] = molecular target: D(4) dopamine receptor (Homo sapiens, UniProt P21917); experiment: Radioligand assay (DRD4.7)
[13] = molecular target: Serine/threonine-protein kinase D1 (Homo sapiens) (UniProt Q15139); conditions: Compound concentration 1000.0 nM
[14] = molecular target: C-X-C chemokine receptor type 2 (Homo sapiens) (UniProt P25025); conditions: Compound concentration 10.0 uM
Description: IL-8B (CXCR2) CEREP ligand profiling

[15] = molecular target: Muscarinic acetylcholine receptor M2 (Homo sapiens) (UniProt P08172); conditions: Compound concentration 10.0 uM
Description: M2 CEREP ligand profiling

[16] = test system: Phosphatidylinositol 4,5-bisphosphate 3-kinase catalytic subunit alpha isoform (Homo sapiens), P42336 [Q546K]; conditions: Compound concentration 1000.0 nM
[17] = molecular target: Serine/threonine-protein kinase Nek1 (Homo sapiens) (UniProt Q96PY6); conditions: Compound concentration 1000.0 nM
[18] = molecular target: GABA-A receptor; anion channel (Homo sapiens) (UniProt P14867+P47870+P18507+P28472+P48169+Q99928+Q9UN88+P34903+O00591+O14764+Q8N1C3+P18505+P78334+P47869+P31644+Q16445); conditions: Compound concentration 10.0 uM
Description: Cl- channel CEREP ligand profiling

[19] = molecular target: T1, D(4) dopamine receptor; experiment: Radioligand assay using 3[H] A-369508
[20] = molecular target: Macrophage colony-stimulating factor 1 receptor (Homo sapiens) (UniProt P07333); conditions: Compound concentration 1000.0 nM
[21] = molecular target: Type-1 angiotensin II receptor (Homo sapiens) (UniProt P30556); conditions: Compound concentration 10.0 uM
Description: AT1 CEREP ligand profiling

[22] = molecular target: Type-2 angiotensin II receptor (Homo sapiens) (UniProt P50052); conditions: Compound concentration 10.0 uM
Description: AT2 CEREP ligand profiling

[23] = molecular target: Adenosine receptor A2a (Homo sapiens) (UniProt P29274); experiment: A2A CEREP ligand profiling; conditions: Compound concentration 10.0 uM
[24] = molecular target: Histamine H2 receptor (Homo sapiens) (UniProt P25021); conditions: Compound concentration 10.0 uM
Description: H2 CEREP ligand profiling

[25] = molecular target: Calcium/calmodulin-dependent protein kinase type 1D (Homo sapiens) (UniProt Q8IU85); conditions: Compound concentration 1000.0 nM
[26] = molecular target: D(1A) dopamine receptor (Homo sapiens) (UniProt P21728); experiment: D1 CEREP ligand profiling; conditions: Compound concentration 10.0 uM
[27] = molecular target: 5-hydroxytryptamine receptor 7 (Homo sapiens) (UniProt P34969); conditions: Compound concentration 10.0 uM
Description: 5-HT7 CEREP ligand profiling

[28] = molecular target: 5-hydroxytryptamine receptor 2A (Homo sapiens) (UniProt P28223); conditions: Compound concentration 10.0 uM
Description: 5-HT2A CEREP ligand profiling

[29] = molecular target: Neuromedin-K receptor (Homo sapiens) (UniProt P29371); experiment: NK3 CEREP ligand profiling; conditions: Compound concentration 10.0 uM
[30] = molecular target: Serine/threonine-protein kinase Sgk3 (Homo sapiens) (UniProt Q96BR1); conditions: Compound concentration 1000.0 nM
[31] = molecular target: 5-hydroxytryptamine receptor 6 (Homo sapiens) (UniProt P50406); conditions: Compound concentration 10.0 uM
Description: 5-HT6 CEREP ligand profiling

[32] = molecular target: Nociceptin receptor (Homo sapiens) (UniProt P41146); conditions: Compound concentration 10.0 uM
Description: ORL1 CEREP ligand profiling

[33] = molecular target: Delta-type opioid receptor (Homo sapiens) (UniProt P41143); conditions: Compound concentration 10.0 uM
Description: delta CEREP ligand profiling

[34] = molecular target: 5-hydroxytryptamine receptor 3A (Homo sapiens) (UniProt P46098); conditions: Compound concentration 10.0 uM
Description: 5-HT3 CEREP ligand profiling

[35] = molecular target: Mitogen-activated protein kinase kinase kinase 12 (Homo sapiens) (UniProt Q12852); conditions: Compound concentration 1000.0 nM
[36] = molecular target: Cannabinoid receptor 1 (Homo sapiens) (UniProt P21554); conditions: Compound concentration 10.0 uM
Description: CB1 CEREP ligand profiling

[37] = molecular target: Cyclin-dependent kinase 4 (Homo sapiens) (UniProt P11802); conditions: Compound concentration 1000.0 nM
[38] = molecular target: 5-hydroxytryptamine receptor 2C (Homo sapiens) (UniProt P28335); conditions: Compound concentration 10.0 uM
Description: 5-HT2C CEREP ligand profiling

[39] = molecular target: Translocator protein (Rattus norvegicus) (UniProt P16257); conditions: Compound concentration 10.0 uM
Description: BZD (peripheral) CEREP ligand profiling

[40] = molecular target: Dual specificity protein kinase CLK4 (Homo sapiens) (UniProt Q9HAZ1); conditions: Compound concentration 1000.0 nM

Serine/threonine-protein kinase Nek1 (Homo sapiens), sequence (Q96PY6 whole entry): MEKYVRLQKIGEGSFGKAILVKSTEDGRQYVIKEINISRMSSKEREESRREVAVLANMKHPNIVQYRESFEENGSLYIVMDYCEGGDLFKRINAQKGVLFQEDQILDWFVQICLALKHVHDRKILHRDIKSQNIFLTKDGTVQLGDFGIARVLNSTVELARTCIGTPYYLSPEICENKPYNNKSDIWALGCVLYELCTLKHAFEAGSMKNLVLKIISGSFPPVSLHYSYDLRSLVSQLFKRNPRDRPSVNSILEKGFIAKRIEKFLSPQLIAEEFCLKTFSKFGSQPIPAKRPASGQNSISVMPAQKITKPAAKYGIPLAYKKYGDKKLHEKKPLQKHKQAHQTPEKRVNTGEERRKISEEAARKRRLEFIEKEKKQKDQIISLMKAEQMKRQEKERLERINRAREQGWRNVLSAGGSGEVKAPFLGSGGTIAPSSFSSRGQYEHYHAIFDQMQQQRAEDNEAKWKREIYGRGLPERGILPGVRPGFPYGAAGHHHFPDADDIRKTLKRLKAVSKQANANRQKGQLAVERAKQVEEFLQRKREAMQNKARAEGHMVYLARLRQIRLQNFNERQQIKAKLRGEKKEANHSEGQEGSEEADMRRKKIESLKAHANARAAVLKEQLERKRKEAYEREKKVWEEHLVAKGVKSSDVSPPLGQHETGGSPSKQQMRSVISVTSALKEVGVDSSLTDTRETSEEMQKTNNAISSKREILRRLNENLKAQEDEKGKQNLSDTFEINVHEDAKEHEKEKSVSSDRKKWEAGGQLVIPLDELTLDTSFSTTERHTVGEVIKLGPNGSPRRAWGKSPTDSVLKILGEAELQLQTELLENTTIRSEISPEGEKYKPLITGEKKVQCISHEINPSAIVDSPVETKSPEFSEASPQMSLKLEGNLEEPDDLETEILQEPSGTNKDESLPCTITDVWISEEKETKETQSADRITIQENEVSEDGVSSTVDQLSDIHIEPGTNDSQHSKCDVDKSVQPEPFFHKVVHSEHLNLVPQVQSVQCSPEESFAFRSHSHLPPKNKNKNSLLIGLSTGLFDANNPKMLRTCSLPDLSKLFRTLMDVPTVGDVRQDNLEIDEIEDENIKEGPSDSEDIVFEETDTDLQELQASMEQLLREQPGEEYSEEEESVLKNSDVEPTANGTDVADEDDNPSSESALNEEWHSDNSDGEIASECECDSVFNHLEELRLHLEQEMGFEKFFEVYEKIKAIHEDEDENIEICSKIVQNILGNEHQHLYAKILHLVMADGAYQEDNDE
Phosphatidylinositol 4,5-bisphosphate 3-kinase catalytic subunit alpha isoform (Homo sapiens), P42336 [Q546K], sequence (P42336 whole entry Q546K, canonical isoform): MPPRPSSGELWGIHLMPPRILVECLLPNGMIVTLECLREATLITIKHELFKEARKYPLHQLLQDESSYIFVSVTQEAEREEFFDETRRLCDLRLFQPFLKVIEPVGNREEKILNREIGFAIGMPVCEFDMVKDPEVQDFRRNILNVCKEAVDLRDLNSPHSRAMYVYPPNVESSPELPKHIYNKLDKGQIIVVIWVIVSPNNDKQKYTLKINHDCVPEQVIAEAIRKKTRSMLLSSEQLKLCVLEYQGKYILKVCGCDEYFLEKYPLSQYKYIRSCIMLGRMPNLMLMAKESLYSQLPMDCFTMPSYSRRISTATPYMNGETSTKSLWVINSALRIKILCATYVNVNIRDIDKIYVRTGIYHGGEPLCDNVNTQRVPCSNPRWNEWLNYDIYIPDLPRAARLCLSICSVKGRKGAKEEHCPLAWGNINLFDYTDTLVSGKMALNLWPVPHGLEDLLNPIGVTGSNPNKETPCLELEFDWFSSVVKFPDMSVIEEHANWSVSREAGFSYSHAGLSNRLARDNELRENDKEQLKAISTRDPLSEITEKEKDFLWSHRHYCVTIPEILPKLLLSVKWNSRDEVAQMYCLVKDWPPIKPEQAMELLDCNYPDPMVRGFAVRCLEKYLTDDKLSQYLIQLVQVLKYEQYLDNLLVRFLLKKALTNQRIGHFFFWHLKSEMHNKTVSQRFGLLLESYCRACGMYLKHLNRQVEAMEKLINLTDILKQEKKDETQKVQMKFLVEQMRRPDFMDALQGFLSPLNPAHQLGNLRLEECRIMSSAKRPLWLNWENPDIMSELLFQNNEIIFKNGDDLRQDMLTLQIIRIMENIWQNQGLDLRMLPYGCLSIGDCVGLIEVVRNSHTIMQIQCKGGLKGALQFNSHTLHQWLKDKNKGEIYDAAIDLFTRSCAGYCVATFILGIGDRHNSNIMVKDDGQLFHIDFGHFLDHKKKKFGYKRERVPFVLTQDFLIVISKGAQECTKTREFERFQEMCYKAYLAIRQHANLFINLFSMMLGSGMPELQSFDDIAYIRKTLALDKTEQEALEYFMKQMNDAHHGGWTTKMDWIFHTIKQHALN
Myosin-IIIb (Homo sapiens), sequence (Q8WXR4 whole entry): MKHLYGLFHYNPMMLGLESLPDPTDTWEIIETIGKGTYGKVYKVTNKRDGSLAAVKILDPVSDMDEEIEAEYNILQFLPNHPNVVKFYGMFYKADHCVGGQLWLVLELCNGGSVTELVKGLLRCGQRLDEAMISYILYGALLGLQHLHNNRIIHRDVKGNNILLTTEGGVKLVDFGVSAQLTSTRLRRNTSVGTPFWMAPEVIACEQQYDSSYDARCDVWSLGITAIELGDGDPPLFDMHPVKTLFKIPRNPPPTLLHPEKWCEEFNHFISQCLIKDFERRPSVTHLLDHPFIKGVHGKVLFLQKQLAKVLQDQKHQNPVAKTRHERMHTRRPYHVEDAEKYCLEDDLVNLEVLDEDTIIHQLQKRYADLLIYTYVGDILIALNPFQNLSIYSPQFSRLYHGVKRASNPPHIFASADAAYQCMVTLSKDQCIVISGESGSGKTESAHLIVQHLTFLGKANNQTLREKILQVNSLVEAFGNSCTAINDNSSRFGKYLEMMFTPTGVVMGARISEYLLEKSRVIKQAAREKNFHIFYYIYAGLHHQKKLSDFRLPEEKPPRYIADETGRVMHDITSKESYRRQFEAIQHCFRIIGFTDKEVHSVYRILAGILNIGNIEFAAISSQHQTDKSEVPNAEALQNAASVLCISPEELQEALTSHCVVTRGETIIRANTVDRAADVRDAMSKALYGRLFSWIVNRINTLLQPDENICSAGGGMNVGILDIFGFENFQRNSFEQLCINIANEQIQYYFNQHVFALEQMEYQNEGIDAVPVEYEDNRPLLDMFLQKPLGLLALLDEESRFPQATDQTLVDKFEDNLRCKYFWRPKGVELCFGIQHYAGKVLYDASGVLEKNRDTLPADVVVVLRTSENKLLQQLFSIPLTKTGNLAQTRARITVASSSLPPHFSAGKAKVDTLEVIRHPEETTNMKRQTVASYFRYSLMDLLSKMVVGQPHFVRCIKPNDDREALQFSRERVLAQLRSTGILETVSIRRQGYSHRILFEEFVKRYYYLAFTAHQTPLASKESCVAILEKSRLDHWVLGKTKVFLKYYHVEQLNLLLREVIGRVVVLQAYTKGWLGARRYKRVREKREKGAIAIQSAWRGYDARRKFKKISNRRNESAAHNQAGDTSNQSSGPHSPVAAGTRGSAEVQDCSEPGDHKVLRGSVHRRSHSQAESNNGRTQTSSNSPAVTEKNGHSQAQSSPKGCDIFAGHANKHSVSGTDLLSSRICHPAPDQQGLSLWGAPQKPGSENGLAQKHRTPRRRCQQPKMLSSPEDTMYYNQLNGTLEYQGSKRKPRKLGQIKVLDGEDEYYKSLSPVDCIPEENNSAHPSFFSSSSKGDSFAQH
Phosphatidylinositol 4-kinase beta (Homo sapiens), sequence (Q9UBF8 2-816 limits assumed): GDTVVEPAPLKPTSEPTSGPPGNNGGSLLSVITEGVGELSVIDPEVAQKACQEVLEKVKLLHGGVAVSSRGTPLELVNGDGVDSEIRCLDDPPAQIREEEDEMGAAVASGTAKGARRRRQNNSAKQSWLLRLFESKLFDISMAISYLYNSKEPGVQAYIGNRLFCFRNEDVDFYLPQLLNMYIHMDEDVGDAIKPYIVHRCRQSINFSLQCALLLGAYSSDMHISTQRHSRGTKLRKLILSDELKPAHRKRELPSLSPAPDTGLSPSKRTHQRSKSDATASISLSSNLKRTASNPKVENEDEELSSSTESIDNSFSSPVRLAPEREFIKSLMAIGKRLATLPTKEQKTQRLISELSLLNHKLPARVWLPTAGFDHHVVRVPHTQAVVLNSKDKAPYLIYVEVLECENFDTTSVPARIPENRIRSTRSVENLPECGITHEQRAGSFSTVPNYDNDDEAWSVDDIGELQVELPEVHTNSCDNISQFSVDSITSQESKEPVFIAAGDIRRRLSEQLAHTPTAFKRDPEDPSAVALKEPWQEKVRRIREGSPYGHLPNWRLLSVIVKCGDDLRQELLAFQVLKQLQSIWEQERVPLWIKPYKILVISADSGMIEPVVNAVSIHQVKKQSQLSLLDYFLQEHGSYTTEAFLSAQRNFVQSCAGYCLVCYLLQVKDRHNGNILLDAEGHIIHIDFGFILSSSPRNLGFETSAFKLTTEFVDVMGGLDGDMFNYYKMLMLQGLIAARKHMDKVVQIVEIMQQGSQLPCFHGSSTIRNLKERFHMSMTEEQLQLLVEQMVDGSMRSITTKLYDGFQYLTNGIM
Cyclin-dependent kinase 4 (Homo sapiens), sequence (P11802 whole entry): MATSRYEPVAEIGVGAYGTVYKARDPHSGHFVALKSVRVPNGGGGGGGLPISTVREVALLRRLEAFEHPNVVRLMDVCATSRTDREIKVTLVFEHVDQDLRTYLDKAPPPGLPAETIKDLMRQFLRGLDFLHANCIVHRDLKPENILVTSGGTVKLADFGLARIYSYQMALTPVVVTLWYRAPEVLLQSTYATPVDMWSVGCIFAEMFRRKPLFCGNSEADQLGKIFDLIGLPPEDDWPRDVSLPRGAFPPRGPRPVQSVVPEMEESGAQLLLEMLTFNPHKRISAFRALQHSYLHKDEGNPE
Translocator protein (Rattus norvegicus), sequence (P16257 whole entry, looked up): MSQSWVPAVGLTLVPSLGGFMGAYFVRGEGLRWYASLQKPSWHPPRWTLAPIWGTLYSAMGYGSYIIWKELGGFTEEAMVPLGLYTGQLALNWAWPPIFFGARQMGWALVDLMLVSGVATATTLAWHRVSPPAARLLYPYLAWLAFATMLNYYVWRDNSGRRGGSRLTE

**Q.** For `c1ccc(N2CCN(Cc3nc4ccccc4[nH]3)CC2)nc1` [ABT-724], which inhibition [1] is on record?
**A.** < 10%

**Q.** What about the Ki [2] of the same molecule?
**A.** 0.0636 µM (active)

**Q.** What about the residual activity [3] of the same molecule?
**A.** 95%

**Q.** And the residual activity [4]?
**A.** 100%

**Q.** What about the inhibition [5] of the same molecule?
**A.** < 10%

**Q.** What about the residual activity [6] of the same molecule?
**A.** 96%

**Q.** What about the inhibition [7] of the same molecule?
**A.** < 10%

**Q.** And the residual activity [8]?
**A.** 100%

**Q.** What about the residual activity [9] of the same molecule?
**A.** 100%

**Q.** What about the residual activity [10] of the same molecule?
**A.** 100%

**Q.** What about the inhibition [11] of the same molecule?
**A.** < 10%

**Q.** And the Ki [12]?
**A.** 0.0468 µM (active)

**Q.** And the residual activity [13]?
**A.** 95%

**Q.** And the inhibition [14]?
**A.** < 10%

**Q.** And the inhibition [15]?
**A.** < 10%

**Q.** And the residual activity [16]?
**A.** 100%

**Q.** And the residual activity [17]?
**A.** 100%

**Q.** And the inhibition [18]?
**A.** < 10%

**Q.** What about the Ki [19] of the same molecule?
**A.** 0.0575 µM (active)

**Q.** And the residual activity [20]?
**A.** 98%

**Q.** What about the inhibition [21] of the same molecule?
**A.** < 10%

**Q.** What about the inhibition [22] of the same molecule?
**A.** < 10%

**Q.** And the inhibition [23]?
**A.** 28%

**Q.** What about the inhibition [24] of the same molecule?
**A.** < 10%

**Q.** And the residual activity [25]?
**A.** 96%

**Q.** What about the inhibition [26] of the same molecule?
**A.** 24%

**Q.** What about the inhibition [27] of the same molecule?
**A.** < 10%

**Q.** What about the inhibition [28] of the same molecule?
**A.** < 10%

**Q.** What about the inhibition [29] of the same molecule?
**A.** 26%

**Q.** And the residual activity [30]?
**A.** 100%

**Q.** What about the inhibition [31] of the same molecule?
**A.** < 10%

**Q.** And the inhibition [32]?
**A.** < 10%

**Q.** And the inhibition [33]?
**A.** < 10%

**Q.** What about the inhibition [34] of the same molecule?
**A.** 10%

**Q.** And the residual activity [35]?
**A.** 97%

**Q.** And the inhibition [36]?
**A.** < 10%

**Q.** And the residual activity [37]?
**A.** 100%

**Q.** And the inhibition [38]?
**A.** 10%

**Q.** What about the inhibition [39] of the same molecule?
**A.** < 10%

**Q.** How did the residual activity [3] turn out when `CSc1cccnc1N1CCN(Cc2nc3ccccc3[nH]2)CC1` [A-769] was run?
**A.** 100%

**Q.** What about the residual activity [4] of the same molecule?
**A.** 73%

**Q.** What about the residual activity [6] of the same molecule?
**A.** 79%

**Q.** And the residual activity [40]?
**A.** 100%

**Q.** What about the residual activity [8] of the same molecule?
**A.** 100%

**Q.** What about the residual activity [9] of the same molecule?
**A.** 100%

**Q.** And the residual activity [10]?
**A.** 100%

**Q.** What about the residual activity [13] of the same molecule?
**A.** 100%

**Q.** What about the residual activity [16] of the same molecule?
**A.** 84%

**Q.** What about the residual activity [17] of the same molecule?
**A.** 100%

**Q.** What about the residual activity [20] of the same molecule?
**A.** 100%

**Q.** And the residual activity [25]?
**A.** 100%

**Q.** What about the residual activity [30] of the same molecule?
**A.** 95%

**Q.** And the residual activity [35]?
**A.** 74%

**Q.** What about the residual activity [37] of the same molecule?
**A.** 82%

Source: ChEMBL document CHEMBL4507260 (2021)
